In patent US10927104B2, “Ether compounds and uses thereof” (BioTheryX, Inc., priority 2017, dated 2021):

How the values were obtained:
Type in all cases: cell-based
IL-1β = assay: PBMC assay, LPS-induced IL-1β (Meso Scale); settings: Homo sapiens, PBMCs, 100 ng/mL LPS 18-24 hrs; for inhibition at 0.1 µM: compound at 0.1 μM; for inhibition at 1 µM: compound at 1 μM
Experimental: (§1) FIG. 1 represents the activity against IL-1-beta in peripheral blood mononuclear cells (PBMCs), plated in 96 well plates and pretreated with compound for 1 hour and then induced with 100 ng/mL LPS for 18-24 hrs. Cytokines in the media were measured according to MesoScale protocol. Negative control wells were treated with DMSO. Compound activity is measured as a percentage of LPS-induced activity.
(§2) Frozen primary blood mononuclear cells (PBMCs) were purchased from AllCells. Cells were quick thawed, washed once with RPMI-1640/10% FBS.
(§3) 1% Penicillin/1% Streptomycin and plated in 96 well plates at 200,000 cells per well. Cells were pretreated with DMSO only, or Compound 1 for 1 hour and then induced with 100 ng/mL lipopolysaccharide (LPS) for 18-24 hrs. The supernatant was analyzed for IL-1 beta, IL-6, and TNFα, using Meso Scale assay according to manufacturer's protocol. The negative control wells were treated with DMSO.
(§4) Compound activity was measured as fold difference from the DMSO control. IL-1β activity is shown in FIG. 1; IL-6 activity is shown in FIG. 2; TNFα activity is shown in FIG. 3; and IL-2 activity is shown in FIG. 4. Additional data for compounds (shown as percent inhibition) at 10 μM is shown in Table 1; at 1 μM in Table 2; and at 0.1 μM in Table 3.

IL-6 = assay: PBMC assay, LPS-induced IL-6 (Meso Scale); settings: Homo sapiens, PBMCs, 100 ng/mL LPS 18-24 hrs; for inhibition at 0.1 µM: compound at 0.1 μM; for inhibition at 1 µM: compound at 1 μM
Experimental: as §1, with “FIG. 2” for “FIG. 1”, “against IL-6” for “against IL-1-beta”, “Cytokines” for “Cytokines in the media”, “activity was” for “activity is”
as §2, §3, §4

TNFα = assay: PBMC assay, LPS-induced TNFα (Meso Scale); settings: Homo sapiens, PBMCs, 100 ng/mL LPS 18-24 hrs; for inhibition at 0.1 µM: compound at 0.1 μM; for inhibition at 1 µM: compound at 1 μM
Experimental: as §1, with “FIG. 3” for “FIG. 1”, “against TNFα” for “against IL-1-beta”, “protocol. The negative” for “protocol. Negative”
as §2, §3, §4

IL-2 = assay: Anti-CD3-induced IL-2 secretion in PBMCs (Mesoscale); settings: Homo sapiens, PBMC, anti-CD3 stimulated PBMCs, 24 hr, vs DMSO control, read-out: IL-2 Fold Change; for fold induction at 0.1 µM: compound at 0.1 μM; for fold induction at 1 µM: compound at 1 μM; for fold induction at 10 µM: compound 10 μM
Experimental: FIG. 4 represents Anti-CD3-induced IL-2 secretion in PBMCs. 1 μg/mL anti-CD3 (OKT-3) antibody in PBS coated onto 96-well plates overnight at 4° C. Approximately, 550,000 PBMCs were added to each well, followed by addition of DMSO only (control) or Compound 1. Induction was measured after 24 hrs as fold difference from the DMSO stimulated control.
as §2
For the IL-2 analysis, 96 well plates were precoated with 1 μg/mL anti-human CD3 antibody (OKT3, eBioscience Inc.). After washing with PBS, Compound 1 was added (50 μL/well) followed by PBMCs diluted at 3-4 million cells/mL (150 μL/well). Plates were incubated for 24 hr and the supernatants collected for Mesoscale IL-2 analysis.
as §4

Molm-13 cells = assay: Cell viability assay (CellTiter-Glo), Molm-13 proliferation; settings: Homo sapiens, MOLM-13, 72 h, 3 days; for inhibition at 10 µM: compound at 10 μM; for inhibition at 1 µM: compound at 1 μM; for inhibition at 0.1 µM: compound at 0.1 μM
Experimental: (§5) Molm-13 and MV-4-11 cells were cultivated in RPMI-1640 (10% FBS/1% pen-strep) and were plated in white walled 96-well plates at 20,000 cells/well.
(§6) Cells were treated with compound at the indicated concentration or DMSO (control) and the cultures were incubated for 3 days at 37° C. and 5% CO2. Following the incubation period, 100 μL of CellTiterGlow (CTG) reagent (CellTiter-Glo® Luminescent Cell Viability Assay, Promega (Madison, Wis.)) was added to each well. Following a 10 min incubation with shaking, luminescence was measured using a Victor Wallac Luminometer.

MV-4-11 cells = assay: Cell viability assay (CellTiter-Glo), MV-4-11 proliferation; settings: Homo sapiens, MV4-11, 72 h, 3 days; for inhibition at 1 µM: compound at 1 μM; for inhibition at 10 µM: compound at 10 μM
Experimental: as §5, §6

| Compound | inhibition at 0.1 µM (IL-1β) | inhibition at 0.1 µM (IL-6) | inhibition at 0.1 µM (TNFα) | fold induction at 0.1 µM (IL-2) | fold induction at 1 µM (IL-2) | inhibition at 10 µM (Molm-13 cells) | inhibition at 1 µM (MV-4-11 cells) | inhibition at 10 µM (MV-4-11 cells) | inhibition at 1 µM (IL-1β) | inhibition at 1 µM (IL-6) | inhibition at 1 µM (TNFα) | fold induction at 10 µM (IL-2) | inhibition at 1 µM (Molm-13 cells) | inhibition at 10 µM (IL-1β; compound at 10 μM) | inhibition at 10 µM (IL-6; compound at 10 μM) | inhibition at 10 µM (TNFα; compound at 10 μM) | inhibition at 0.1 µM (Molm-13 cells) |
| --- | --- | --- | --- | --- | --- | --- | --- | --- | --- | --- | --- | --- | --- | --- | --- | --- | --- |
| NCc1cccc(COc2cccc3c2CN([C@H]2CCCC(=O)NC2=O)C3=O)c1 [Compound 9, trifluoroacetic acid] | 74% | 51% | 62% | 1.6 | 1.6 | 34% | 2% | 10% | – | – | – | – | – | – | – | – | – |
| O=C1CCC[C@H](N2Cc3c(OCc4cccc(CN5CCOCC5)c4)cccc3C2=O)C(=O)N1 [Compound 10] | 52% | 27% | 48% | 1.9 | 2.1 | 38% | 1% | 35% | – | – | – | – | – | – | – | – | – |
| Cc1cnc(Nc2ccc(OCCCNC(=O)NCc3ccc(COc4cccc5c4CN([C@H]4CCCC(=O)NC4=O)C5=O)cc3)cc2)nc1Nc1cccc(S(=O)(=O)NC(C)(C)C)c1 [Compound 13] | – | – | – | – | 0.3 | – | 0% | 50% | 51% | 59% | 84% | 0.1 | 29% | – | – | – | – |
| Cc1cnc(Nc2ccc(OCCCNC(=O)NCc3ccc(COc4cc(F)cc5c4CN([C@H]4CCC(=O)NC4=O)C5=O)cc3)cc2)nc1Nc1cccc(S(=O)(=O)NC(C)(C)C)c1 [Compound 18] | – | – | – | – | 3.2 | 99% | 99% | 99% | 80% | 49% | 83% | 3.3 | – | 83% | 45% | 89% | – |
| Cc1cnc(Nc2ccc(OCCCNC(=O)NCc3ccc(COc4cccc5c4CN([C@H]4CCC(=O)NC4=O)C5=O)cc3)cc2)nc1Nc1cccc(S(=O)(=O)NC(C)(C)C)c1 [Compound 20] | 30% | 1% | 43% | 0.9 | 1.4 | – | 77% | 88% | 43% | 5% | 57% | – | 99% | – | – | – | 93% |
| NCc1ccc2c(c1OCc1ccc(CN3CCOCC3)cc1)CN([C@H]1CCCC(=O)NC1=O)C2=O [Compound 22, ditrifluoroacetic acid] | 69% | 23% | 78% | 2 | 2.4 | – | 2% | 4% | 74% | 27% | 80% | – | 56% | – | – | – | 31% |
| Cc1cnc(Nc2ccc(OCCCNCC(=O)NCc3ccc(COc4cc(F)cc5c4CN([C@H]4CCC(=O)NC4=O)C5=O)cc3)cc2)nc1Nc1cccc(S(=O)(=O)NC(C)(C)C)c1 [Compound 25] | 0% | 3% | 13% | 0.9 | 1 | – | 54% | 90% | 8% | 32% | 25% | – | – | – | – | – | – |
